The Cmax is the maximum level reached in the sampled fluid or tissue. As a reminder, the AUC(0-t) is exposure summed from dosing to a finite time, without extrapolation to infinity. Low readings indicate less exposure, high ones more exposure. The fraction unbound is free concentration divided by total concentration. A lower fraction unbound goes with extensive binding.

This note sets out measurements from US20100041697A1, “PNEUMONIA TREATMENT” (TaiGen Biotechnology Co., Ltd., priority 2008, published 2010).

Each structure is given as a SMILES string. Structures can show the parent of a compound that is named as a salt.

For data set [1], the system named is community-acquired pneumonia. Kind of data set: Randomized, double-blind clinical trials in community-acquired pneumonia. The format is in vivo, human. To be noted: for cure rate / subjects cured: after 7 days; for cure rate: adult patients. As for the experimental part: Randomized, double-blind clinical trials were conducted at 17 sites in Taiwan and South Africa to assess the effectiveness of Compound 1 in treating adult patients with community-acquired pneumonia.
The trials included a total of 265 subjects having community-acquired pneumonia. The average age of the subjects was 43.5 years old and the average body weight was 66.17 kg. About 50% of the subjects were male, and about 62% of the subjects were Black or African American, about 21% White, and about 15% Asian.
Among the 265 subjects, 86 were treated with 3 Compound 1-containing capsules (750 mg of the free base compound, i.e., (3S,5S)-7-[3-amino-5-methyl-piperidinyl]-1-cyclopropyl-1,4-dihydro-8-methoxy-4-oxo-3-quinolinecarboxylic acid) per day, 89 with 2 Compound 1-containing capsules (500 mg of the free base compound) per day, and 90 with 2 levofloxacin capsules (500 mg of levofloxacin) per day for 7 consecutive days. In each group, the drug capsules were orally taken by the subjects in the morning with a full glass of water (240 mL). Within 2 hours after taking the drugs, the subjects were not allowed to eat, but water intake (no more than 240 mL) was permitted. Overall, 10.6% of randomized subjects withdrew from the treatments.

A short description of data set [2]: Pharmacokinetic analysis of plasma (Cmax, AUC0-24h) at steady state. The format is in vivo, human. The note with it: for Free AUC0-24: corrected for plasma protein binding; for Cmax / AUC(0-t): human, po, steady state, plasma; for Cmax: in vivo.
Data set [3] is described as follows: Plasma protein binding by ultrafiltration. The format is in vitro ADME. The note with it: human plasma. As for the experimental part:
Protein binding was also measured as follows: Ultrafiltrate (UF) samples were obtained by centrifuging the above-mentioned Compound 1-contaning heparinized human plasma in molecular weight cutoff ultrafiltration devices (30,000 Da) at ˜3000 rpm (30 min, ˜37° C.). The UF samples (0.025 mL) were mixed with an internal standard solution—0.050 mL of ˜800 ng/mL O^13CD3-Compound 1 (in which the OCH3 group was replaced with the O^13CD3 group), diluted by 20 folds, and analyzed by reverse-phase HPLC on a 3.5 micron C-18 column. Quantitation was obtained by the multiple reaction monitoring method through positive ion Turbo-Ion Spray ionization. Ultrafiltrate standards were used to quantify the unbound drug in plasma quality control samples and unknown specimens. Non-specific protein binding (NSB) was measured (NSB=0.0415) and used as a correction factor to determine the final % protein bindings. The nominal range of quantitation for the analyte was 50 to 10,000 ng/mL. 0.400 mL aliquot of human plasma was used in the assay. Sample concentrations were determined by back-calculation using a weighted linear (1/x^2) regression of a calibration curve generated from spiked UF standards. Over the linear range, the inter-batch % CV for Compound 1 was 4.9% to 11.8%.

Data set [4] has as its system Methicillin-Resistant Staphylococcus aureus. Kind of data set: Broth microdilution against MRSA isolates (CAN-ICU Study). The format is cell-based. The text has this:
MRSA isolates (n=193) were obtained as part of the Canadian National Intensive Care Unit (CAN-ICU) Study. 19 medical centers from all regions of Canada with active ICUs participated in the CAN-ICU study included. They were requested to only obtain “clinically significant” specimens from patients with a presumed infectious disease. Surveillance swabs, eye, ear, nose and throat swabs were excluded. Anaerobic organisms and fungal organisms were also excluded.
From September 2005-June 2006 (inclusive), each center collected a maximum of 300 consecutive pathogens isolated from blood, urine, tissue/wound, and respiratory specimens (one pathogen per cultured site per patient) of ICU patients. These isolates were shipped to the reference laboratory (Health Sciences Centre, Winnipeg, Canada) on Amies charcoal swabs, subcultured in appropriate media, and stocked in skim milk at −80° C.
The isolates' methicillin resistance was confirmed using the disk diffusion method described by the Clinical and Laboratory Standards Institute. […] Their PFGE fingerprints thus obtained were analyzed with BioNumerics v3.5 (Applied Maths St. Marten-Latem, Belgium) using a position tolerance of 1.0 and an optimization of 1.0. Strain relatedness was determined as previously described (Tenover et al., 1995). […]
A general note: Broth dilution looks for growth in wells or tubes with falling amounts of substance.

Data set [5] deals with multidrug-resistant methicillin-resistant Staphylococcus aureus. As to the kind of experiment: Agar dilution MIC against multidrug-resistant MRSA (Taiwan isolates). The format is cell-based. As for the experimental part:
Compound 1 was tested for its inhibitory effect against multidrug-resistant methicillin-resistant Staphylococcus aureus obtained by 10 medical centers in all regions of Taiwan. MICs were determined using the agar dilution methods recommended by the Clinical and Laboratory Standards Institute (CLSI-M100-S18).
On the technique in general: In agar dilution, organisms are placed on agar that contains the substance at set levels.

In data set [6] the test system is Methicillin-Resistant Staphylococcus aureus. Kind of data set: Broth microdilution MIC against methicillin-resistant Staphylococcus aureus (Taiwan isolates). The note with it: 0.008 to 8 μg/ml. The format is cell-based. As for the experimental part: (§1) The Staphylococcus aureus and Streptococcus pneumoniae isolates were obtained by 10 medical centers in all regions of Taiwan. MICs were determined using the broth microdilution method.

Data set [7] deals with Streptococcus pneumoniae. As to the kind of experiment: Broth microdilution MIC against Streptococcus pneumoniae (Taiwan isolates). The format is cell-based. To be noted: 0.008 to 8 μg/ml. As for the experimental part: as §1
Setting [8] is: 500 mg per day orally, 89 treated (Compound 1), 90 treated (levofloxacin).

`COc1c(N2C[C@@H](C)C[C@H](N)C2)ccc2c(=O)c(C(=O)O)cn(C3CC3)c12` [Compound 1, malate salt hemihydrate of (3S,5S)-7-[3-amino-5-methyl-piperidinyl]-1-cyclopropyl-1,4-dihydro-8-methoxy-4-oxo-3-quinolinecarboxylic acid]: the cure rate amounted to 75.3% in data set [1] (500 mg per day orally) and 82.6% in data set [1] (750 mg per day orally). Besides, the subjects cured is 67 subjects in data set [1] (setting [8]) and 71 subjects in data set [1] (750 mg per day orally, 86 treated). In addition, the “effectiveness in treating community-acquired pneumonia” value in data set [1] (oral capsules, 7 consecutive days) is given as “effective in treating community-acquired pneumonia”. Further, the “Free AUC0-24” value turned out to be 32400 ng·h/mL in data set [2] (500 mg q24 p.o.), 49100 ng·h/mL in data set [2] (750 mg q24 p.o.) and 62900 ng·h/mL in data set [2] (1000 mg q24 p.o.). The maximum concentration (Cmax) in data set [2] (500 mg q24 p.o.) is 5560 ng/mL; in data set [2] (750 mg q24 p.o.), 6820 ng/mL; in data set [2] (1000 mg q24 p.o.), 8200 ng/mL. For the same molecule, the AUC(0-t) in data set [2] (500 mg q24 p.o.) was found to be 38600 ng·h/mL; in data set [2] (750 mg q24 p.o.), 58400 ng·h/mL; in data set [2] (1000 mg q24 p.o.) it was 74800 ng·h/mL. This molecule had a fraction unbound at 30 min in data set [3] (500 mg per day, 500 mg q24 p.o.) of 0.84. For the same molecule, the “Protein Binding” value in data set [3] (750 mg q24 p.o.) and in data set [3] (1000 mg q24 p.o.) was 16% throughout. Besides, in data set [4], the “activity against community-associated-MRSA versus healthcare-associated-MRSA strains” value is recorded as “more active against community-associated-MRSA strains than healthcare-associated-MRSA strains”. For the same molecule, in data set [4] (193 MRSA isolates), the “inhibitory activity against the MRSA isolates” value was “effectively inhibited MRSA”. Besides, the “inhibitory effect against MRSA isolates that are Ciprofloxacin-resistant, Vancomycin-intermediate-resistant, and Daptomycin-nonsusceptible” value in data set [5] is “effective in inhibiting”.
As for `COc1c(N2C[C@H](C)C[C@H](N)C2)ccc2c(=O)c(C(=O)O)cn(C3CC3)c12` [Compound 1′, malate salt hemihydrate of (3S,5R)-7-[3-amino-5-methyl-piperidinyl]-1-cyclopropyl-1,4-dihydro-8-methoxy-4-oxo-3-quinolinecarboxylic acid], the “inhibitory effect against methicillin-resistant Staphylococcus aureus” value in data set [6] was “effective in inhibiting”. Moreover, in data set [7], the “inhibitory effect against Streptococcus pneumoniae” value was “effective in inhibiting”.
As to `C[C@H]1COc2c(N3CCN(C)CC3)c(F)cc3c(=O)c(C(=O)O)cn1c23` [levofloxacin, reference compound], the cure rate in data set [1] (500 mg per day orally) was 80.0%. In data set [1] (setting [8]), this molecule registered a subjects cured of 72 subjects.
